Source: patent publication US6544987B2, “Compounds, compositions, and methods for stimulating neuronal growth and elongation” (Pfizer Inc., priority 1999, dated 2003)
Where “and” joins values, the source holds several entries; their conditions need not be identical. Equal values may be shown once.

Experiments:
FKBP12 [1] = target: T1, FKBP12 (Homo sapiens, UniProt P62942); assay: Rotamase inhibition assay (N-succinyl-Ala-Ala-Pro-Phe-p-nitroanilide, chymotrypsin-coupled); assay type: biochemical; conditions: Table 1; read-out: Rotamase Ki(app)
T1 sequence (P62942 whole entry, species assumed): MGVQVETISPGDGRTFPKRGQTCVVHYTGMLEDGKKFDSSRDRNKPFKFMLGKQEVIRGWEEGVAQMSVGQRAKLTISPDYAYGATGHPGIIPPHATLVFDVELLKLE
Experimental: In the rotamase inhibition assay, isomerization of an artificial substrate N-succinyl-Ala-Ala-Pro-Phe-p-nitroanilide is followed spectrophotometrically. The assay includes the cis form of the substrate, FKBP12, the compound being tested, and chymotrypsin. Chymotrypsin is able to cleave p-nitroaniline from the trans form of the substrate, but not from the cis form. Release of p-nitroaniline is measured spectrophotometrically. Using this assay, various amounts of the FKBP rotamase-inhibiting compounds of formula (I) were added to cis-N-succinyl-alanine-alanine-proline-phenylalanine-para-nitroaniline (BACHEM, 3132 Kashiwa Street, Torrance, Calif. 90505) in the presence of FKBP12 and chymotrypsin. Spectrophotometric measurements of p-nitroaniline concentrations allowed estimation of the apparent Ki values, which are provided in Table 1 below.

FKBP12 [2] = target: T1, FKBP12; assay: Affinity for FKBP-12 (Ki), succinyl-Ala-Leu-Pro-Phe-pNA chymotrypsin-coupled assay; assay type: biochemical; design: key to FKBP12 inhibition (in Kiapps column): NI: no inhibition; NSI: no significant inhibition; conditions: for Ki: Table 2, read-out: FKBP12 Kiapps; for FKBP12 inhibition (in Kiapps column): @ 20
Experimental: In a quartz cuvette, a final 1 mL buffer concentration was reached (50 mM Hepes, 100 mM NaCl, pH 8.0). Within this final reaction volume, 3.5 μL […] FKBP-12 (in 50 mM Hepes, 100 mM NaCl, pH 8.0) and 10 μL test compound in DMSO were added. The reaction was initiated by adding 10 μL chymotrypsin (100 mg/mL in 1 mM HCl) followed by 5 μL (1-20 mM succinyl-Ala-Leu-Pro-Phe-pNA in 240 mM LiCl/TFE).
The absorbance at 390 nm versus time was monitored for up to 400 seconds. Rate constants were determined from the absorbance versus time plots generated.

COc1cc(NS(=O)(=O)N2CCCC[C@H]2C(=O)OC(CCCc2ccccc2)CCCc2ccccc2)cc(OC)c1OC [Compound 22, 1-(3,4,5-Trimethoxy-phenylsulfamoyl)-piperidine-2S-carboxylic acid 4-phenyl-1-(3-phenyl-propyl)-butyl ester]
Ki (FKBP12 [1]): 382 nM

CCC(C)(C)NS(=O)(=O)N1CCCC[C@H]1C(=O)OC(CCCc1ccccc1)CCCc1ccccc1 [Compound 23, 1-(1,1-Dimethyl-propylsulfamoyl)-piperidine-2S-carboxylic acid 4-phenyl-1-(3-phenyl-propyl)-butyl ester]
Ki (FKBP12 [1]): 6990 nM

O=C(OCCCCc1ccccc1)[C@@H]1CCCCN1S(=O)(=O)Nc1ccccc1 [Compound 24, 1-Phenylsulfamoyl-piperidine-2S-carboxylic acid 4-phenyl-butyl ester]
Ki (FKBP12 [1]): 1160 nM | Ki (FKBP12 [2]): 1160 nM and 508 nM

COc1ccc(N(C)S(=O)(=O)N2CCCC[C@H]2c2nnc(Cc3ccccc3)o2)cc1 [Compound 77, 2-(5-Benzyl-[1,3,4]oxadiazol-2-yl)-piperidine-1-sulfonic acid (4-methoxy-phenyl)-methyl-amide]
Ki (FKBP12 [2]): 68000 nM

COc1cc(NS(=O)(=O)N2CCCC[C@H]2c2nnc(Cc3ccccc3)o2)cc(OC)c1OC [Compound 78, 2-(5-Benzyl-[1,3,4]oxadiazol-2-yl)-piperidine-1-sulfonic acid (3,4,5-trimethoxy-phenyl)-amide]
Ki (FKBP12 [2]): 5200 nM

COc1cc(NS(=O)(=O)N2[C@H]3CC[C@H](C3)[C@H]2C(=O)OCCCCc2ccccc2)cc(OC)c1OC [Compound 85, 2-(3,4,5-Trimethoxy-phenylsulfamoyl)-2-aza-bicyclo[2.2.1]heptane-endo-3-carboxylic acid 4-phenyl-butyl ester]
Ki (FKBP12 [2]): 1600 nM

O=C(OCc1ccccc1)[C@@H]1CCCCN1S(=O)(=O)Nc1ccc(N2CCOCC2)nc1 [Compound 86, (S)-1-(6-Morpholin-4-yl-pyridin-3-ylsulfamoyl)-piperidine-2-carboxylic acid Benzyl ester]
Ki (FKBP12 [2]): 1790 nM and 1170 nM

COc1ccc(NS(=O)(=O)N2CCCC[C@H]2C(=O)OCc2ccccc2)cn1 [Compound 87, 1-(6-Methoxy-pyridin-3-ylsulfamoyl)-piperidine-2S-carboxylic acid Benzyl ester]
Ki (FKBP12 [2]): 760 nM

C[C@@H]1CN(S(=O)(=O)N2CCCC[C@H]2C(=O)OCc2ccccc2)C[C@H](C)O1 [Compound 88, (S)-1-(cis-2,6-Dimethyl-morpholine-4-sulfonyl)-piperidine-2-carboxylic acid benzyl ester]
Ki (FKBP12 [2]): 837 nM

COC(=O)[C@@H]1CCCCN1S(=O)(=O)Nc1cc(OC)c(OC)c(OC)c1 [Compound 90, (S)-1-(3,4,5-Trimethoxy-phenylsulfamoyl)-piperidine-2-carboxylic acid Methyl ester]
Ki (FKBP12 [2]): 6900 nM

COc1cc(NS(=O)(=O)N2CCCC[C@H]2C(=O)NCCCN2CCCCC2)cc(OC)c1OC [Compound 91, (S)-1-(3,4,5-Trimethoxy-phenylsulfamoyl)-piperidine-2-carboxylic acid (3-piperidin-1-yl-propyl)-amide]
Ki (FKBP12 [2]): 1300 nM

COc1cc(NS(=O)(=O)N2CCCC[C@H]2C(=O)NCCCc2cccnc2)cc(OC)c1OC [Compound 93, (S)-1-(3,4,5-Trimethoxy-phenylsulfamoyl)-piperidine-2-carboxylic acid (3-pyridin-3-yl-propyl)-amide]
Ki (FKBP12 [2]): 200 nM

O=C(OCCCCc1ccccc1)[C@@H]1CCCCN1S(=O)(=O)Nc1ccc(N2CCOCC2)nc1 [Compound 94, (S)-1-(6-Morpholin-4-yl-pyridin-3-ylsulfamoyl)-piperidine-2-carboxylic acid 4-phenyl-butyl ester]
Ki (FKBP12 [2]): 208 nM

O=C(OCCCCc1ccccc1)[C@@H]1CCCCN1S(=O)(=O)Nc1cc(F)c(F)c(F)c1 [Compound 95, (S)-1-(3,4,5-Trifluoro-phenylsulfamoyl)-piperidine-2-carboxylic acid 4-phenyl-butyl ester]
Ki (FKBP12 [2]): 435 nM

O=C(OCCCCc1ccccc1)[C@@H]1CCCCN1S(=O)(=O)Nc1ccc(C(F)(F)F)nc1 [Compound 96, (S)-1-(6-Trifluoromethyl-pyridin-3-ylsulfamoyl)-piperidine-2-carboxylic acid 4-phenyl-butyl ester]
Ki (FKBP12 [2]): 440 nM

O=C(OCCCCc1ccccc1)[C@@H]1CCCCN1S(=O)(=O)Nc1cccnc1 [Compound 97, (S)-1-(Pyridin-3-ylsulfamoyl)-piperidine-2-carboxylic acid 4-phenylbutyl ester]
Ki (FKBP12 [2]): 73 nM

COc1cccc(NS(=O)(=O)N2CCCC[C@H]2C(=O)OCCCCc2ccccc2)c1 [Compound 98]
Ki (FKBP12 [2]): 218 nM

O=C(OCCCCc1ccccc1)[C@@H]1CCCCN1S(=O)(=O)N(O)c1ccccc1 [Compound 99, (S)-1-(Hydroxy-phenyl-sulfamoyl)-piperidine-2-carboxylic acid 4-phenyl-butyl ester]
FKBP12 inhibition (in Kiapps column) (FKBP12 [2]): NI @ 20

COc1cc(NS(=O)(=O)N2CCCC[C@H]2C(=O)OC(COCc2ccccc2)COCc2ccccc2)cc(OC)c1OC [Compound 102, (S)-1-(3,4,5-Trimethoxy-phenylsulfamoyl)-piperidine-2-carboxylic acid 2-benzyloxy-1-benzyloxymethyl-ethyl ester]
Ki (FKBP12 [2]): 171 nM

COc1ccc(NS(=O)(=O)N2CCCC[C@H]2C(=O)OC(COCc2ccccc2)COCc2ccccc2)cn1 [Compound 103, (S)-1-(6-Methoxy-pyridin-3-ylsulfamoyl)-piperidine-2-carboxylic acid 2-benzyloxy-1-benzyloxymethyl-ethyl ester]
Ki (FKBP12 [2]): 39 nM

COc1cc(NS(=O)(=O)N2CCCC[C@H]2C(=O)OC(COCc2ccccc2)COCc2ccccc2)c(OC)cc1Cl [Compound 104, (S)-1-(4-Chloro-2,5-dimethoxy-phenylsulfamoyl)-piperidine-2-carboxylic acid 2-benzyloxy-1-benzyloxymethyl-ethyl ester]
Ki (FKBP12 [2]): 7100 nM

O=C(OC(COCc1ccccc1)COCc1ccccc1)[C@@H]1CCCCN1S(=O)(=O)Nc1cccnc1 [Compound 105, (S)-1-(Pyridin-3-ylsulfamoyl)-piperidine-2-carboxylic acid 2-benzyloxy-1-benzyloxymethyl-ethyl ester]
Ki (FKBP12 [2]): 33 nM

O=C(OC(COCc1ccccc1)COCc1ccccc1)[C@@H]1CCCCN1S(=O)(=O)Nc1ccc(N2CCOCC2)nc1 [Compound 106, (S)-1-(6-Morpholin-4-yl-pyridin-3-ylsulfamoyl)-piperidine-2-carboxylic acid 2-benzyloxy-1-benzyloxymethyl-ethyl ester]
Ki (FKBP12 [2]): 115 nM

Cc1ccc(NS(=O)(=O)N2CCCC[C@H]2C(=O)OC(COCc2ccccc2)COCc2ccccc2)cn1 [Compound 107, (S)-1-(6-Methyl-pyridin-3-ylsulfamoyl)-piperidine-2-carboxylic acid 2-benzyloxy-1-benzyloxymethyl-ethyl ester]
Ki (FKBP12 [2]): 88 nM

O=C(OC(COCc1ccccc1)COCc1ccccc1)[C@@H]1CCCCN1S(=O)(=O)Nc1cnc(N2CCOCC2)c(C(F)(F)F)c1 [Compound 108, (S)-1-(Morpholin-4-yl-trifluoromethyl-pyridin-3-ylsulfamoyl)-piperidine-2-carboxylic acid 2-benzyloxy-1-benzyloxymethyl-ethyl ester]
Ki (FKBP12 [2]): 127 nM

COc1cc(NS(=O)(=O)N2CCCC[C@H]2C(=O)N[C@H](COCc2cccnc2)C(C)C)cc(OC)c1OC [Compound 112, (S)-1-(3,4,5-Trimethoxy-phenylsulfamoyl)-piperidine-2-carboxylic acid [(S)-2-methyl-1-(pyridin-3-ylmethoxymethyl)-propyl]-amide]
Ki (FKBP12 [2]): 41 nM

CCC(C)(C)NS(=O)(=O)N1CCC[C@H]1COC(=O)N(CCc1ccccc1)Cc1ccccc1 [Compound 113, Benzyl-phenethyl-carbamic acid (S)-1-(dimethyl-propylsulfamoyl)-pyrrolidin-2-ylmethyl ester]
Ki (FKBP12 [2]): 33000 nM

CCC(C)(C)NS(=O)(=O)N1CCC[C@H]1C(=O)NCCCc1cccnc1 [Compound 114, (S)-1-(1,1-Dimethyl-propylsulfamoyl)-pyrrolidine-2-carboxylic acid (3-pyridin-3-yl-propyl)-amide]
Ki (FKBP12 [2]): 1110 nM

O=C(OCc1ccccc1)[C@@H]1CCCN1S(=O)(=O)Nc1cccnc1 [Compound 115, (S)-1-(Pyridin-3-ylsulfamoyl)-pyrrolidine-2-carboxylic acid benzyl ester]
Ki (FKBP12 [2]): 20400 nM

O=C(O)[C@@H]1CCCN1S(=O)(=O)Nc1cccnc1 [Compound 116, (S)-1-(Pyridin-3-ylsulfamoyl)-pyrrolidine-2-carboxylic acid]
FKBP12 inhibition (in Kiapps column) (FKBP12 [2]): NSI @ 20

O=C1[C@@H]2CCCN2S(=O)(=O)N1c1cccnc1 [Compound 117, (S)-1,1-Dioxo-2-pyridin-3-yl-hexahydro-1λ^6-thia-2,6a-diaza-pentalen-3-one]
FKBP12 inhibition (in Kiapps column) (FKBP12 [2]): NSI @ 20

O=C(NCCCc1ccccc1)[C@@H]1CCCN1S(=O)(=O)Nc1cccnc1 [Compound 118, (S)-1-(Pyridin-3-ylsulfamoyl)-pyrrolidine-2-carboxylic acid (3-phenyl-propyl)-amide]
Ki (FKBP12 [2]): 16900 nM

COc1cc(NS(=O)(=O)N2CCCC[C@H]2C(=O)CCCCCc2ccccc2)cc(OC)c1OC [Compound 119, (S)-2-(6-Phenyl-hexanoyl)-piperidine-1-sulfonic acid (3,4,5-trimethoxy-phenyl)-amide]
Ki (FKBP12 [2]): 1300 nM
